In brackets after ≈: the same amount, converted by molar mass. Several values for one entry are separate records, joined by “and”; a condition that tells them apart may be missing. Identical values can stand only once. Like-named read-outs stand apart in the source and are kept apart here.
What was measured:
[1] = test system: methicillin-susceptible Staphylococcus aureus (MSSA) ATCC 29213; assay: MIC by broth microdilution (CLSI M07-A8), with PS80; type: cell-based
Experimental: Determination of MIC values to methicillin-susceptible Staphylococcus aureus (MSSA).
Minimum Inhibitory Concentration (MIC) is defined as the lowest concentration of antibacterial agent required to inhibit growth of a microorganism after incubation. The antibiotics vancomycin (Van) and ristomycin (Rist) were obtained from Sigma-Aldrich while chloroeremomycin (CE) and oritavancin (Ori) were obtained from the Medicine Company Inc., U.S.A. To prepare antibiotic stock solutions for MICs assay, 5 mg/ml of each drug was dissolved in water containing an appropriate volume of 0.002% polysorbate-80 or PS80 obtained from Sigma-Aldrich which corresponds to 20 µM to eliminate nonspecific interactions of drugs to surfaces particularly for Ori which is known to bind to glass and plastics13. Microbiological broth with PS80 maintained at 20 µM was used in the drug dilution steps until the required final (assay) concentration. Diluted concentrations of each drug were assayed by adding an inoculum of methicillin-susceptible Staphylococcus aureus (MSSA) ATCC 29213 cells and the MIC determined by broth microdilution according to Clinical Laboratory Standards Institute (CLSI) methodology M07-A8 (CLSI 2009a)14. The results as shown in Supplementary Table S2 for each antibiotic against clinical isolate of MSSA ATCC 29213 strains conducted in the presence of […]
PS80 are within the quality control ranges defined in the guideline15. […]

[2] = molecular target: VSR (Ac-VSR) in solution; conditions: cited from earlier work
[3] = test system: Staphylococcus aureus, enterococcus faecalis and enterococcus faecium; parameters: method as in PMID 19369269; conditions: cited from earlier work
[4] = molecular target: vancomycin-susceptible receptor (VSR); assay: Surface plasmon resonance (SPR) binding to VSR; conditions: T100 BIAcore, fit of equation (2), read-out: Ksurf SPR
Experimental: The SPR sensor chip functionalization procedure is summarized (see methods & materials Supplementary Information) while the measurement protocol has been described previously. In brief we used a T100 BIAcore SPR instrument in which a series of binding analyses for Van was performed. […] The corresponding SPR response signals featured an S-shaped curve, with a steep rise, then a plateau when Van concentration was increased beyond 50 μM (Fig. 7e,f). The resulting SPR differential response signals in sodium phosphate buffer solution for 0.1 μM, 0.5 μM, 2 μM, 8 μM and 128 μM were then computed using equation (2) to calculate the surface thermodynamic equilibrium dissociation constant, Ksurf of drug-target interactions.
Surface plasmon resonance (SPR) sensor chip functionalization procedure. We applied the same cantilever functionalization procedure to the SPR sensor chip functionalization. […]
The differential stress measurements obtained from cantilever chips are typically associated with multiple parameters including number of repeated measurements, concentration and the number of cantilevers where each array has eight individual cantilevers. The statistical analysis was found to be essential for replacing a vast quantity of data with numbers such as the averages and standard deviations. […]

[5] = molecular target: vancomycin-resistant receptor (VRR); conditions: ref. 3 (Van), ref. 5 (Rist), ref. 4 (CE), supplementary references, read-out: Ksurf SPR; cited from earlier work
[6] = MSSA ATCC 29213, with PS80, converted from mg/l
[7] = VSR in solution, ref. 1 (Van, Rist), ref. 7 (CE), ref. 2 (Ori), supplementary references, read-out: Ksurf Solution
[8] = solution, read-out: binding affinity against Ac-VSR

Compound	MIC [1, 6]	MIC ([1]; Staphylococcus aureus)	Kd [2, 7]	Kd [2, 8]	time–kill kinetics [3]	Kd [4]	Kd [5]
CN[C@H](CC(C)C)C(=O)N[C@H]1C(=O)N[C@@H](CC(N)=O)C(=O)N[C@H]2C(=O)N[C@H]3C(=O)N[C@H](C(=O)N[C@H](C(=O)O)c4cc(O)cc(O)c4-c4cc3ccc4O)[C@H](O[C@H]3C[C@](C)(N)[C@@H](O)[C@H](C)O3)c3ccc(c(Cl)c3)Oc3cc2cc(c3O[C@@H]2O[C@H](CO)[C@@H](O)[C@H](O)[C@H]2O[C@H]2C[C@](C)(NCc3ccc(-c4ccc(Cl)cc4)cc3)[C@@H](O)[C@H](C)O2)Oc2ccc(cc2Cl)[C@H]1O [Ori, oritavancin]	0.03 µM (≈ 0.0538 µg/mL)	0.06 µg/mL and 0.03 µM	3800 nM	~1000 nM	–	–	–
CN[C@H](CC(C)C)C(=O)N[C@H]1C(=O)N[C@@H](CC(N)=O)C(=O)N[C@H]2C(=O)N[C@H]3C(=O)N[C@H](C(=O)N[C@H](C(=O)O)c4cc(O)cc(O)c4-c4cc3ccc4O)[C@H](O)c3ccc(c(Cl)c3)Oc3cc2cc(c3O[C@@H]2O[C@H](CO)[C@@H](O)[C@H](O)[C@H]2O[C@H]2C[C@](C)(N)[C@H](O)[C@H](C)O2)Oc2ccc(cc2Cl)[C@H]1O [Van, vancomycin]	0.67 µM (≈ 0.971 µg/mL)	1 µg/mL and 0.67 µM	1000 nM	~1000 nM	6 to 24 h	1100 ± 400 nM	526000 nM

From publication PMC5290737, “Surface mediated cooperative interactions of drugs enhance mechanical forces for antibiotic action” (Scientific Reports, 2017)
